Measurements reported in patent US20200121884A1, “BIOACTIVATION METHOD FOR ENHANCING NEURAL ACTIVITY AND BLOOD C[…] OF LIVING BODY” (Aqua Bank CO.,LTD., priority 2017, published 2020).

Key:
[1] = tested on: healthy women in their 20's to 30's; conditions: 17 subjects, evaluation in score
Description: (§1) In the verification test using this method, hydrogen mainly produced by the hydrogen generating device (an electrolytic hydrogen gas suction tool 100 which will be described later) is orally suctioned. More specifically, hydrogen generated by the hydrogen generatingor device 100 is suctioned by spontaneous breathing for approximately 10 minutes. The amount of hydrogen generated per minute is 8 cc per minute by electrolysis (4 cc of oxygen is also generated at the same time) and thus, 12 cc per minute of a gas mixture of oxygen/hydrogen is generated. This gas mixture is suctioned by spontaneous breathing. Normally, since an adult suctions approximately 5 litters of air per minute under spontaneous breathing, assuming that all the generated gas mixture is suctioned, the gas mixture at 0.24% at the maximum (hydrogen 0.18%, oxygen 0.06%) is contained in an expiratory air. […]
(§2) For an action of the central nervous activity by hydrogen, a brain stress test utilized for the purpose of evaluating an activity degree and a stress degree of the brain is conducted, and the brain activity degree (degree of fatigue) is measured by a flicker device. Moreover, influences of a sight function, a skin sensibility function, a gravity balance function and the like are measured by a brain executive function meter. […]

[2] = tested on: healthy women in their 20's to 30's; conditions: 17 subjects, before vs after suctioning, Table 2 and FIG. 2
Description: as §1, with “breathing.” for “breathing. Normally, since an adult suctions approximately 5 litters of air per minute under spontaneous breathing, assuming that all the generated gas mixture is suctioned, the gas mixture at 0.24% at the maximum (hydrogen 0.18%, oxygen 0.06%) is contained in an expiratory air.”
By paying attention to a physiological reaction that a skin temperature of a distal end section (the forehead center part and a first knuckle-joint cushion side part of the index finger are measured this time) is changed in accordance with predominance of the sympathetic nervous activity, the change in the skin temperature is measured by a temperature sensor over time before and after drinking of the hydrogen solution. The temperature sensor body has an approximate size of a thickness of 1 mm and a diameter of 3 mm, and the change in the skin temperature is measured by a recorder in a wired manner from the sensor.

[3] = tested on: healthy women in their 20's to 30's; conditions: 17 subjects, before vs after suctioning, Table 1 and FIG. 1
Description: (§3) In the verification test using this method, hydrogen mainly produced by the hydrogen generating device (an electrolytic hydrogen gas suction tool 100 which will be described later) is orally suctioned. More specifically, hydrogen generated by the hydrogen generatingor device 100 is suctioned by spontaneous breathing for approximately 10 minutes. The amount of hydrogen generated per minute is 8 cc per minute by electrolysis (4 cc of oxygen is also generated at the same time) and thus, 12 cc per minute of a gas mixture of oxygen/hydrogen is generated. This gas mixture is suctioned by spontaneous breathing. Normally, since an adult suctions approximately 5 litters of air per minute under spontaneous breathing, assuming that all the generated gas mixture is suctioned, the gas mixture at 0.24% at the maximum (hydrogen 0.18%, oxygen 0.06%) is contained in an expiratory air.
The subjects were 20 selected subjects, grouped into two groups, considering the ages and test time slots (morning and afternoon), and measurement was conducted for 10 subjects a day. […]

[4] = tested on: healthy women in their 20's to 30's; conditions: 17 subjects, subjective five-grade evaluation, FIG. 6
Description: as §3
The subjects were 20 selected subjects, grouped into two groups, considering the ages and test time slots (morning and afternoon), and measurement was conducted for 10 subjects a day.
The testing method is as follows: • (1) In the main test, each subject should suction hydrogen. • (2) Tests/evaluations which will be described later shall be conducted for each subject while each subject is suctioning hydrogen, and by comparing/examining each evaluation before and after the suctioning, physiological effects by hydrogen is verified. • (3) For the subject who is sitting on a chair for measurement with his/her eyes open, a test manager or a test cooperator prepares a hydrogen generating tool (not generating hydrogen) which is a control and assigns it to the subject. The subject shall put his/her mouth to a nozzle 5 of an electrolytic hydrogen gas suction tool 100 which is this hydrogen generating device (see FIGS. 7 to 10) or a tube portion connected to that and normally breath for approximately 10 minutes. After that, each measurement which will be described later is conducted at any time. After that, the subject puts his/her mouth to the nozzle 5 of the electrolytic hydrogen gas suction tool 100 which generates hydrogen or the tube portion connected to that as a subject sample and suctions hydrogen for 10 minutes similarly. After that, each measurement is made. If abnormality is found in the subject while the subject is suctioning hydrogen, the test manager or the test cooperator shall immediately stop the suctioning. When the suctioning of hydrogen is stopped, the practitioner shall record the fact of the stop and suctioning time in a clinical report. • (4) The test manager shall check if a harmful phenomenon has occurred in the subject during the test or not.
For an action of the central nervous activity by hydrogen, a brain stress test utilized for the purpose of evaluating an activity degree and a stress degree of the brain is conducted, and the brain activity degree (degree of fatigue) is measured by a flicker device. Moreover, influences of a sight function, a skin sensibility function, a gravity balance function and the like are measured by a brain executive function meter. For a change in emotional feelings, an ability of concentration, sleepiness and the like are examined by interview by using a multilateral emotional state scale. The respective measurements will be described in brief below.

[5] = tested on: healthy women in their 20's to 30's; conditions: 17 subjects, Table 4 and FIG. 5
Description: as §1, with “breathing.” for “breathing. Normally, since an adult suctions approximately 5 litters of air per minute under spontaneous breathing, assuming that all the generated gas mixture is suctioned, the gas mixture at 0.24% at the maximum (hydrogen 0.18%, oxygen 0.06%) is contained in an expiratory air.”
as §2
Actions to the brain executive functions (right-and-left cognitive function, sight function, short-time memory, skin sensibility, gravity balance and the like are comprehensively analyzed) are analyzed (measurement instrument: Brain executive function meter by Anima).

**Q.** What does the source list for [HH] [hydrogen]?
**A.** brain stress, change by hydrogen suctioning ([1]; Table 3 and FIG. 3): significantly decreased; brain rotation degree score, change by hydrogen suctioning ([1]; Table 3 and FIG. 4): significantly raised; peripheral skin temperature, change by hydrogen suctioning [2]: significantly raised; pupil contraction rate (CR value), change by hydrogen suctioning [3]: significantly increased; fatigue feeling, change by hydrogen suctioning [4]: decreased; feeling of concentration, change by hydrogen suctioning [4]: significantly raised; feeling of exhilarating, change by hydrogen suctioning [4]: significantly raised; feeling of refreshing, change by hydrogen suctioning [4]: significantly raised; spontaneous stress, change by hydrogen suctioning [4]: decreased; right-and-left cognitive function, change by hydrogen suctioning [5]: remarkable improvement; short-term memory, change by hydrogen suctioning [5]: remarkable improvement
